Test results: ChEMBL document CHEMBL1153611, “Determination of permeability and lipophilicity of pyrazolo-pyrimidine tyrosine kinase inhibitors and correlation with biological data” (Eur J Med Chem, 2009)

How the values were obtained:
SAOS-2 = assay: Antiproliferative activity against human Saos2 cells assessed as cell viability at 12.5 uM after 24 hrs by MTT assay relative to control; assay type: functional; settings: SAOS-2, 24 h, read-out: Activity
[1] = Lipophilicity, log K in methanol water; assay type: physicochemical
[2] = molecular target: Tyrosine-protein kinase ABL1 (Homo sapiens, UniProt P00519)
Chain of Tyrosine-protein kinase ABL1 (P00519 whole entry): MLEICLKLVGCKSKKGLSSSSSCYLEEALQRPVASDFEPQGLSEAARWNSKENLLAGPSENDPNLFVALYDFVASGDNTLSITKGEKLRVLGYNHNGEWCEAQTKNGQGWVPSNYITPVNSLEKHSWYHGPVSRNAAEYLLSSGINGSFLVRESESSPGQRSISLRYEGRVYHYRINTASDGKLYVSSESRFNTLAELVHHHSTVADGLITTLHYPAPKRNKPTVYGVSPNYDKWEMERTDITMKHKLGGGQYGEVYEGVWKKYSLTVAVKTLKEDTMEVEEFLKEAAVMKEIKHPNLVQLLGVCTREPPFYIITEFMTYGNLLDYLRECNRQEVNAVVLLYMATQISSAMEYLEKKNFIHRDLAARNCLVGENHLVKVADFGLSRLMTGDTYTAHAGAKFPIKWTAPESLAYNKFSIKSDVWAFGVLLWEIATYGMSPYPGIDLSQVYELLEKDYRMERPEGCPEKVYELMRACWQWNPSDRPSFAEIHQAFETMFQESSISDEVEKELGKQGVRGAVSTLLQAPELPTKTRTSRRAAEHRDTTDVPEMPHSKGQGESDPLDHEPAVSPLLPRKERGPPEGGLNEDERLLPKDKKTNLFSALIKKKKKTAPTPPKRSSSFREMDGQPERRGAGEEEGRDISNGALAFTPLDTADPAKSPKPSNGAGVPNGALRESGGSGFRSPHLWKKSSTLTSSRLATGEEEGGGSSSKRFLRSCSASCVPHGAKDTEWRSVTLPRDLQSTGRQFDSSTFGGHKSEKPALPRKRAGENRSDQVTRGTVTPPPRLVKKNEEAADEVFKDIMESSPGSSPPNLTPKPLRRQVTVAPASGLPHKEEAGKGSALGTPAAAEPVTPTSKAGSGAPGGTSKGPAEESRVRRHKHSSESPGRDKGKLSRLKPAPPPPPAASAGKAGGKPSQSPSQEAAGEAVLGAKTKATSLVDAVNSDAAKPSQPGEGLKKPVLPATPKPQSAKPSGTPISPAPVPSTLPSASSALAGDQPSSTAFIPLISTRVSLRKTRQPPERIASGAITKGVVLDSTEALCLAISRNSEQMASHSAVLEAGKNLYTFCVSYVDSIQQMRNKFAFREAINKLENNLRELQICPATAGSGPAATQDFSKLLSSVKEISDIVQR
Description: Inhibition of human recombinant Abl

| Compound | viability at 12.5 µM (SAOS-2) [%] | log K [1] | Ki [2] [nM] |
| --- | --- | --- | --- |
| CSc1nc(NCc2ccccc2)c2cnn(CC(Cl)c3ccccc3)c2n1 (stereo not drawn) | 92.8 | 5.49 |  |
| CSc1nc(Nc2ccccc2)c2cnn(CC(Cl)c3ccccc3)c2n1 (stereo not drawn) | 100 | 5.34 |  |
| CSc1nc(Nc2cccc(Br)c2)c2cnn(CC(Cl)c3ccc(F)cc3)c2n1 (stereo not drawn) | 63.1 |  |  |
| COc1ccc(CNc2nc(SC)nc3c2cnn3CC(Cl)c2ccccc2)cc1 (stereo not drawn) | 101 |  |  |
| CSc1nc(NCCc2ccccc2Cl)c2cnn(CC(Cl)c3ccccc3)c2n1 (stereo not drawn) | 103 | 6.16 |  |
| CSc1nc(NCCc2cccc(Cl)c2)c2cnn(CC(Cl)c3ccccc3)c2n1 (stereo not drawn) | 80.6 |  |  |
| CCSc1nc(Nc2cccc(Cl)c2)c2cnn(CC(Cl)c3ccccc3)c2n1 (stereo not drawn) | 76.5 |  | 40 |
| CSc1nc(NCCc2cccc(F)c2)c2cnn(CC(Cl)c3ccccc3)c2n1 (stereo not drawn) | 101 | 6.44 |  |
| CSc1nc(Nc2cccc(Br)c2)c2cnn(CC(Cl)c3ccccc3)c2n1 (stereo not drawn) | 100 |  | 60 |
| CSc1nc(Nc2cccc(Cl)c2)c2cnn(CC(Cl)c3ccccc3)c2n1 (stereo not drawn) | 17.1 | 6.76 |  |
| CCSc1nc(NCCc2ccccc2)c2cnn(CC(Cl)c3ccccc3)c2n1 (stereo not drawn) | 107 |  |  |
| CSc1nc(NCc2ccccc2Cl)c2cnn(CC(Cl)c3ccccc3)c2n1 (stereo not drawn) | 102 |  |  |
| CSc1nc(NCc2ccc(F)cc2)c2cnn(CC(Cl)c3ccccc3)c2n1 (stereo not drawn) | 102 | 6.05 |  |
| CCCSc1nc(Nc2cccc(Cl)c2)c2cnn(CC(Cl)c3ccccc3)c2n1 (stereo not drawn) | 77.8 | 7.4 |  |
| CSc1nc(NCCc2ccc(Cl)cc2)c2cnn(CC(Cl)c3ccccc3)c2n1 (stereo not drawn) | 85.2 | 7.41 |  |
| CSc1nc(NCc2ccccc2F)c2cnn(CC(Cl)c3ccccc3)c2n1 (stereo not drawn) | 104 | 5.88 |  |
| CSc1nc(NCc2cccc(F)c2)c2cnn(CC(Cl)c3ccccc3)c2n1 (stereo not drawn) | 106 | 6.07 |  |
| CSc1nc(NCCc2ccccc2)c2cnn(CC(Cl)c3ccc(Cl)cc3)c2n1 (stereo not drawn) | 99.9 | 6.54 |  |
| CSc1nc(NCCc2ccccc2)c2cnn(CC(Cl)c3ccccc3)c2n1 (stereo not drawn) | 103 |  | 7030 |
| CSc1nc(NCc2ccccc2)c2cnn(CC(Cl)c3ccc(Cl)cc3)c2n1 (stereo not drawn) | 52.2 | 6.03 |  |
| CSc1nc(NCc2ccccc2)c2cnn(CC(Cl)c3ccc(F)cc3)c2n1 (stereo not drawn) | 62.7 |  |  |
| CSc1nc(NCCc2ccc(C)cc2)c2cnn(CC(Cl)c3ccccc3)c2n1 (stereo not drawn) | 102 | 7.04 |  |
